Assay results reported in patent US9023789B2, “Amylin analogs and pharmaceutical compositions thereof” (Novo Nordisk A/S, priority 2012, dated 2015).
Numbered stars: 1 amine (or outer) side, 2 acyl side, 3 side chain; on linkers, the order of the positions; unused ones are H or OH. Bridge positions count the residues as written; N and C are the ends. Side chains are listed from the residue outwards. Peptide text beside a SMILES is read from it. * marks the point of attachment. C20 diacid = O=C(O)CCCCCCCCCCCCCCCCCCC(=O)*; γGlu = O=C(O)[C@H](CCC(=O)[*:2])N[*:1]; AEEA = NCCOCCOCC(=O)O

Legend:
[1] = biological target: T1, human amylin receptor (membranes from Amylin 3(a)/CRE-luc cells) (Homo sapiens, UniProt O60896+P30988); assay: ASSAY (V) binding to the human amylin receptor (SPA, 125I-rat amylin); settings: for IC50: Table 4, read-out: hAmylin-R bind IC50;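 as to all read-outs here: competition binding of cell membranes (35 ng/µL) mixed with SPA beads in 384-well plates at 40 µL total volume, read by scintillation counting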
T1 construct: expressed in transfected cells
T1 sequence (P30988 25-474): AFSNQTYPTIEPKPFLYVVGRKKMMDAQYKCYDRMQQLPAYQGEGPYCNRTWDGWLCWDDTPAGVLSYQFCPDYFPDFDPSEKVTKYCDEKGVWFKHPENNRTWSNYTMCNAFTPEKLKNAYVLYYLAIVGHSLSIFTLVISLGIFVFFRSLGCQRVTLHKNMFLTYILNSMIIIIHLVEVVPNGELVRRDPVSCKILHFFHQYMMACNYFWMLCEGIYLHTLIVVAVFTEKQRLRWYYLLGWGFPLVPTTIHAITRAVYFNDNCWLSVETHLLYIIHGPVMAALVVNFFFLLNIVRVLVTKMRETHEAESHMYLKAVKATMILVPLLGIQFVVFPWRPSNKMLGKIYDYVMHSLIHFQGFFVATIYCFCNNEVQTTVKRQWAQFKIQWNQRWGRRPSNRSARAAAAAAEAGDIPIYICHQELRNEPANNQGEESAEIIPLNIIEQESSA
T1 sequence (O60896 24-148 partner): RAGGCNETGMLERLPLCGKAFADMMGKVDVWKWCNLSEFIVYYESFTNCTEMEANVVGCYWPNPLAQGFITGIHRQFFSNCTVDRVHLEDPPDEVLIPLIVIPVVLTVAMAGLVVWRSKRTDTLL

[2] = biological target: T2, human amylin 3(a) receptor (human calcitonin receptor + RAMP-3) in BHK570 cells (Homo sapiens, UniProt O60896+P30988); assay: ASSAY (II)a functional assay, human amylin receptor (CRE luciferase); format: cell-based; settings: for EC50: human amylin receptor functional potency, assay (II), read-out: hAmylin-R funct. EC50
T2 construct: expressed in transfected cells
How it was run: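 Readout is luminescence from a cAMP-responsive CRE-luc reporter, developed with LucLite for 30 min at room temperature. Cells were treated for 3 h at 37 °C in 10% FBS/DMEM buffered with 10 mM Hepes (pH 7.4).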

[3] = ASSAY (III) ThT fibrillation assay for physical stability; format: physicochemical
How it was run: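 Physical stability scored by ThT fluorescence (444 nm excitation, 485 nm emission) tracked every 20 min during 37 °C incubation with 960 rpm shaking, ThT at 1 μM final. Values are replicate means with SD at chosen times; HPLC against pramlintide standard gives initial and post-assay soluble concentrations.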

[4] = Table 5, selectivity, hCTR bind IC50 / hAmylin-R bind IC50
[5] = Table 5a, selectivity, hCTR bind IC50 / hAmylin-R bind IC50
[6] = Table 5b, selectivity, hCTR bind IC50 / hAmylin-R bind IC50
[7] = Table 5c, selectivity, hCTR bind IC50 / hAmylin-R bind IC50
[8] = Table 7, human binding selectivity, included for comparison
[9] = Table 7a (preferred compounds), human binding selectivity, included for comparison
[10] = ratio of human calcitonin receptor binding IC50 to human amylin receptor binding IC50
[11] = hCTR funct. EC50 divided by hAmylin-R funct. EC50
[12] = hCTR funct. EC50 over hAmylin-R funct. EC50
[13] = human functional selectivity: hCTR funct. EC50 / hAmylin-R funct. EC50

IC50 [1] [nM] | Ratio hCT/hAmylin binding [1, 4] | Ratio hCT/hAmylin binding [1, 5] | Ratio hCT/hAmylin binding [1, 6] | Ratio hCT/hAmylin binding [1, 7] | Ratio hCT/hAmylin binding [1, 8] | Ratio hCT/hAmylin binding [1, 9] | Ratio hCT/hAmylin binding [1, 10] | Ratio hCT/hAmylin funct. [2, 11] | Ratio hCT/hAmylin funct. [2, 12] | EC50 [2] [nM] | Ratio hCT/hAmylin funct. [2, 13] | ThT pH 4.0 lag time (h) [3] [h] | Structure (SMILES)
0.215 | 80.0 | 80.0 | 80.0 | 80.0 | 80.0 | 80.0 | 80.0 | 24.8 | 24.8 | 0.297 | 24.8 | 22 | CC[C@H](C)[C@H](NC(=O)[C@H](C)NC(=O)CNC(=O)[C@H](Cc1ccccc1)NC(=O)[C@H](CC(N)=O)NC(=O)[C@@H]1CCCN1C(=O)[C@H](CO)NC(=O)[C@H](CO)NC(=O)[C@H](Cc1c[nH]cn1)NC(=O)[C@H](CCCNC(=N)N)NC(=O)[C@H](CC(C)C)NC(=O)[C@H](Cc1ccccc1)NC(=O)[C@H](CC(N)=O)NC(=O)[C@H](C)NC(=O)[C@H](CC(C)C)NC(=O)[C@H](CCCNC(=N)N)NC(=O)[C@H](CCC(N)=O)NC(=O)[C@@H](NC(=O)[C@H](C)NC(=O)[C@@H]1CSSC[C@H](NC(=O)[C@@H](N)CCCCNC(=O)COCCOCCNC(=O)CC[C@H](NC(=O)CCCCCCCCCCCCCCCCCCC(=O)O)C(=O)O)C(=O)N[C@@H](CC(N)=O)C(=O)N[C@@H]([C@@H](C)O)C(=O)N[C@@H](C)C(=O)N[C@@H]([C@@H](C)O)C(=O)N1)[C@@H](C)O)C(=O)N1CCC[C@H]1C(=O)N[C@@H](CO)C(=O)N[C@@H](CO)C(=O)N[C@H](C(=O)N[C@@H](CC(N)=O)C(=O)N[C@H](C(=O)NCC(=O)N[C@@H](Cc1c[nH]cn1)C(=O)N[C@@H](CC(N)=O)C(=O)N[C@H](C(=O)N[C@@H](Cc1ccc(O)cc1)C(N)=O)[C@@H](C)O)C(C)C)[C@@H](C)O [Example 76] (H-K([AEEA-γGlu-C20 diacid])CNTATCATQRLANFLRHSSPNFGAIPSSTNVGHNTY-NH2; disulfide 2-7; N-terminus assumed)
– | 118.4 | 118.4 | 118.4 | 118.4 | 118.4 | 118.4 | 118.4 | 37.3 | 37.3 | – | 37.3 | 21 | CC[C@H](C)[C@H](NC(=O)[C@H](C)NC(=O)CNC(=O)[C@H](Cc1ccccc1)NC(=O)[C@H](CC(N)=O)NC(=O)[C@@H]1CCCN1C(=O)[C@H](CO)NC(=O)[C@H](CO)NC(=O)[C@H](Cc1c[nH]cn1)NC(=O)[C@H](CCCNC(=N)N)NC(=O)[C@H](CC(C)C)NC(=O)[C@H](Cc1ccccc1)NC(=O)[C@H](CC(N)=O)NC(=O)[C@H](C)NC(=O)[C@H](CC(C)C)NC(=O)[C@H](CCCNC(=N)N)NC(=O)[C@H](CCC(N)=O)NC(=O)[C@@H](NC(=O)[C@H](C)NC(=O)[C@@H]1CSSC[C@H](NC(=O)[C@@H](N)CCCCNC(=O)CC[C@H](NC(=O)CCCCCCCCCCCCCCCCCCC(=O)O)C(=O)O)C(=O)N[C@@H](CC(N)=O)C(=O)N[C@@H]([C@@H](C)O)C(=O)N[C@@H](C)C(=O)N[C@@H]([C@@H](C)O)C(=O)N1)[C@@H](C)O)C(=O)N1CCC[C@H]1C(=O)N[C@@H](CO)C(=O)N[C@@H](CO)C(=O)N[C@H](C(=O)N[C@@H](CC(N)=O)C(=O)N[C@H](C(=O)NCC(=O)N[C@@H](Cc1c[nH]cn1)C(=O)N[C@@H](CC(N)=O)C(=O)N[C@H](C(=O)N[C@@H](Cc1ccc(O)cc1)C(N)=O)[C@@H](C)O)C(C)C)[C@@H](C)O [Example 77]
0.29 | 68.1 | 68.1 | 68.1 | 68.1 | 68.1 | 68.1 | 68.1 | 15.4 | 15.4 | 0.139 | 15.4 | 28 | CC[C@H](C)[C@H](NC(=O)[C@H](C)NC(=O)CNC(=O)[C@H](Cc1ccccc1)NC(=O)[C@H](CC(N)=O)NC(=O)[C@@H]1CCCN1C(=O)[C@H](CO)NC(=O)[C@H](CO)NC(=O)[C@H](Cc1c[nH]cn1)NC(=O)[C@H](CCCNC(=N)N)NC(=O)[C@H](CC(C)C)NC(=O)[C@H](Cc1ccccc1)NC(=O)[C@H](Cc1c[nH]cn1)NC(=O)[C@H](C)NC(=O)[C@H](CC(C)C)NC(=O)[C@H](CCCNC(=N)N)NC(=O)[C@H](CCC(N)=O)NC(=O)[C@@H](NC(=O)[C@H](C)NC(=O)[C@@H]1CSSC[C@H](NC(=O)[C@@H](N)CCCCNC(=O)COCCOCCNC(=O)CC[C@H](NC(=O)CCCCCCCCCCCCCCCCCCC(=O)O)C(=O)O)C(=O)N[C@@H](CC(N)=O)C(=O)N[C@@H]([C@@H](C)O)C(=O)N[C@@H](C)C(=O)N[C@@H]([C@@H](C)O)C(=O)N1)[C@@H](C)O)C(=O)N1CCC[C@H]1C(=O)N[C@@H](CO)C(=O)N[C@@H](CO)C(=O)N[C@H](C(=O)N[C@@H](CC(N)=O)C(=O)N[C@H](C(=O)NCC(=O)N[C@@H](Cc1c[nH]cn1)C(=O)N[C@@H](CC(N)=O)C(=O)N[C@H](C(=O)N[C@@H](Cc1ccc(O)cc1)C(N)=O)[C@@H](C)O)C(C)C)[C@@H](C)O [Example 80] (H-K([AEEA-γGlu-C20 diacid])CNTATCATQRLAHFLRHSSPNFGAIPSSTNVGHNTY-NH2; disulfide 2-7; N-terminus assumed)
0.271 | 87.2 | 87.2 | 87.2 | 87.2 | 87.2 | 87.2 | 87.2 | 13.3 | 13.3 | 0.13 | 13.3 | 45 | CC[C@H](C)[C@H](NC(=O)[C@H](C)NC(=O)CNC(=O)[C@H](Cc1ccccc1)NC(=O)[C@H](CC(N)=O)NC(=O)[C@@H]1CCCN1C(=O)[C@H](CO)NC(=O)[C@H](CO)NC(=O)[C@H](Cc1c[nH]cn1)NC(=O)[C@H](CCCNC(=N)N)NC(=O)[C@H](CC(C)C)NC(=O)[C@H](Cc1ccccc1)NC(=O)[C@H](Cc1c[nH]cn1)NC(=O)[C@H](C)NC(=O)[C@H](CC(C)C)NC(=O)[C@H](CCCNC(=N)N)NC(=O)[C@H](CCC(N)=O)NC(=O)[C@@H](NC(=O)[C@H](C)NC(=O)[C@@H]1CSSC[C@H](NC(=O)[C@@H](N)CCCCNC(=O)CC[C@H](NC(=O)CCCCCCCCCCCCCCCCCCC(=O)O)C(=O)O)C(=O)N[C@@H](CC(N)=O)C(=O)N[C@@H]([C@@H](C)O)C(=O)N[C@@H](C)C(=O)N[C@@H]([C@@H](C)O)C(=O)N1)[C@@H](C)O)C(=O)N1CCC[C@H]1C(=O)N[C@@H](CO)C(=O)N[C@@H](CO)C(=O)N[C@H](C(=O)N[C@@H](CC(N)=O)C(=O)N[C@H](C(=O)NCC(=O)N[C@@H](Cc1c[nH]cn1)C(=O)N[C@@H](CC(N)=O)C(=O)N[C@H](C(=O)N[C@@H](Cc1ccc(O)cc1)C(N)=O)[C@@H](C)O)C(C)C)[C@@H](C)O [Example 81] (H-K([γGlu-C20 diacid])CNTATCATQRLAHFLRHSSPNFGAIPSSTNVGHNTY-NH2; disulfide 2-7; N-terminus assumed)
